Experimental data published in ChEMBL document CHEMBL4308851, “Alkyl-guanidine Compounds as Potent Broad-Spectrum Antibacterial Agents: Chemical Library Extension and Biological Characterization” (J Med Chem, 2018).
Converted amounts (≈) assume the structure as drawn. The source made the active and inactive calls. No cut-off for these calls is given here.

Experiments:
[1] = system: Enterococcus faecalis; test: Antibacterial activity against Enterococcus faecalis ATCC 19433 after 18 hrs by microdilution broth method; format: functional; settings: ATCC 19433, 18 h
[2] = system: Streptococcus pyogenes; test: Antibacterial activity against Streptococcus pyogenes ATCC 12344 after 18 hrs by microdilution broth method; format: functional; settings: ATCC 12344, 18 h
[3] = system: Pseudomonas aeruginosa; test: Antibacterial activity against Pseudomonas aeruginosa ATCC 27853 after 18 hrs by microdilution broth method; format: functional; settings: ATCC 27853, 18 h
[4] = system: Escherichia coli; test: Antibacterial activity against Escherichia coli CCUG after 18 hrs by microdilution broth method
[5] = system: Acinetobacter baumannii; test: Antibacterial activity against Acinetobacter baumannii ATCC 17978 after 18 hrs by microdilution broth method; format: functional; settings: ATCC 17978, 18 h
[6] = system: Bacillus spizizenii; test: Antibacterial activity against Bacillus subtilis ATCC 6633 after 18 hrs by microdilution broth method; format: functional; settings: ATCC 6633, 18 h
[7] = system: Klebsiella pneumoniae; test: Antibacterial activity against Klebsiella pneumoniae ATCC […] after 18 hrs by microdilution broth method; format: functional
[8] = system: Staphylococcus aureus; test: Antibacterial activity against Staphylococcus aureus ATCC 25923 after 18 hrs by microdilution broth method; format: functional; settings: ATCC 25923, 18 h
[9] = system: Stenotrophomonas maltophilia; test: Antibacterial activity against Stenotrophomonas maltophilia isolate 634/08 after 18 hrs by microdilution broth method; format: functional; settings: isolate 634/08, 18 h
[10] = system: Burkholderia cepacia; test: Antibacterial activity against Burkholderia cepacia isolate SI-R2 after 18 hrs by microdilution broth method; format: functional; settings: isolate SI-R2, 18 h
[11] = system: Klebsiella pneumoniae; test: Antibacterial activity against Klebsiella pneumoniae isolate SI-081 after 18 hrs by microdilution broth method; format: functional; settings: isolate SI-081, 18 h
[12] = system: Acinetobacter baumannii; test: Antibacterial activity against Acinetobacter baumannii isolate AC-54/97 after 18 hrs by microdilution broth method; format: functional; settings: isolate AC-54/97, 18 h
[13] = system: Enterobacter cloacae; test: Antibacterial activity against Enterobacter cloacae isolate VA-417/02 after 18 hrs by microdilution broth method; format: functional; settings: isolate VA-417/02, 18 h
[14] = system: Acinetobacter baumannii; test: Disruption of inner membrane integrity in Acinetobacter baumannii ATCC 19606 co-expressing pMP2200::PrrnB plasmid assessed as induction of […] conversion at 256 ug/ml measured at 10 mins intervals for 1 hr; format: functional, organism-based; settings: ATCC 19606 = CIP 70.34 = JCM 6841
[15] = system: Escherichia coli; test: Disruption of inner membrane integrity in Escherichia coli MG1655 assessed as induction of […] conversion at 256 ug/ml measured at 10 mins intervals for 1 hr; format: functional, organism-based; settings: K-12 substr. MG1655
[16] = system: Pseudomonas aeruginosa; test: Disruption of inner membrane integrity in Pseudomonas aeruginosa PAO1 ATCC 15692 co-expressing pMP2200::PrrnB plasmid assessed as induction of OPNG conversion at 256 ug/ml measured at 10 mins intervals for 1 hr; format: functional, organism-based

MIC [1] | MIC [2] | MIC [3] | MIC [4] | MIC [5] | MIC [6] | MIC [7] | MIC [8] | MIC [9] | MIC [10] | MIC [11] | MIC [12] | MIC [13] | SMILES | Activity [14] | Activity [15] | Activity [16]
8 µg/mL (≈ 8.91 µM) | 1 µg/mL (≈ 1.11 µM) | 128 µg/mL (≈ 143 µM) | 4 µg/mL (≈ 4.46 µM) | 64 µg/mL (≈ 71.3 µM) | 4 µg/mL (≈ 4.46 µM) | 4 µg/mL (≈ 4.46 µM) | 2 µg/mL (≈ 2.23 µM) |  |  |  |  |  | N=C(NCCCCCCCCN(CCCCCCCCNC(=N)NCC1CC1)C(=O)N(CCCCCCNC(=N)NCC1CC1)CCCCCCNC(=N)NCC1CC1)NCC1CC1 |  |  | 
1 µg/mL (≈ 1.18 µM) | 0.25 µg/mL (≈ 0.294 µM) | 32 µg/mL (≈ 37.7 µM) | 2 µg/mL (≈ 2.35 µM) | 16 µg/mL (≈ 18.8 µM) | 0.5 µg/mL (≈ 0.589 µM) | 4 µg/mL (≈ 4.71 µM) | 0.5 µg/mL (≈ 0.589 µM) | 32 µg/mL (≈ 37.7 µM) | 32 µg/mL (≈ 37.7 µM) | 8 µg/mL (≈ 9.42 µM) | 8 µg/mL (≈ 9.42 µM) | 2 µg/mL (≈ 2.35 µM) | CCNC(=N)NCCCCCCCCN(CCCCCCCCNC(=N)NCC)C(=O)N(CCCCCCCCNC(=N)NCC)CCCCCCCCNC(=N)NCC |  |  | 
 |  |  |  |  |  |  |  |  |  |  |  |  | CCCCCCCCCCCCOS(=O)(=O)[O-].[Na+] | Active | Active | Active
4 µg/mL (≈ 3.64 µM) | 1 µg/mL (≈ 0.911 µM) | 8 µg/mL (≈ 7.29 µM) | 4 µg/mL (≈ 3.64 µM) | 16 µg/mL (≈ 14.6 µM) | 4 µg/mL (≈ 3.64 µM) | 4 µg/mL (≈ 3.64 µM) | 8 µg/mL (≈ 7.29 µM) |  |  |  |  |  | N=C(NCCCCCCCCN(CCCCCCCCNC(=N)NCc1ccccc1)C(=O)N(CCCCCCCCNC(=N)NCc1ccccc1)CCCCCCCCNC(=N)NCc1ccccc1)NCc1ccccc1 |  |  | 
1 µg/mL (≈ 1.31 µM) | 0.5 µg/mL (≈ 0.653 µM) | 8 µg/mL (≈ 10.5 µM) | 1 µg/mL (≈ 1.31 µM) | 8 µg/mL (≈ 10.5 µM) | 0.5 µg/mL (≈ 0.653 µM) | 4 µg/mL (≈ 5.23 µM) | 0.5 µg/mL (≈ 0.653 µM) | 16 µg/mL (≈ 20.9 µM) | 32 µg/mL (≈ 41.8 µM) | 8 µg/mL (≈ 10.5 µM) | 4 µg/mL (≈ 5.23 µM) | 4 µg/mL (≈ 5.23 µM) | CNC(=N)NCCCCCCCCN(CCCCCCCCNC(=N)N)C(=O)N(CCCCCCCCNC(=N)N)CCCCCCCCNC(=N)NC |  |  | 
16 µg/mL (≈ 20.3 µM) | 2 µg/mL (≈ 2.54 µM) | 128 µg/mL (≈ 163 µM) | 8 µg/mL (≈ 10.2 µM) | 64 µg/mL (≈ 81.3 µM) | 4 µg/mL (≈ 5.08 µM) | 16 µg/mL (≈ 20.3 µM) | 4 µg/mL (≈ 5.08 µM) |  |  |  |  |  | N=C(N)NCCCCCCN(CCCCCCNC(=N)NCC1CC1)C(=O)N(CCCCCCNC(=N)NCC1CC1)CCCCCCNC(=N)NCC1CC1 |  |  | 
8 µg/mL (≈ 9.46 µM) | 4 µg/mL (≈ 4.73 µM) | 16 µg/mL (≈ 18.9 µM) | 4 µg/mL (≈ 4.73 µM) | 16 µg/mL (≈ 18.9 µM) | 2 µg/mL (≈ 2.37 µM) | 4 µg/mL (≈ 4.73 µM) | 8 µg/mL (≈ 9.46 µM) |  |  |  |  |  | N=C(N)NCCCCCCCCN(CCCCCCCCNC(=N)N)C(=O)N(CCCCCCCCNC(=N)NCC1CC1)CCCCCCCCNC(=N)NCC1CC1 |  |  | 
4 µg/mL (≈ 4.17 µM) | 2 µg/mL (≈ 2.08 µM) | 16 µg/mL (≈ 16.7 µM) | 4 µg/mL (≈ 4.17 µM) | 8 µg/mL (≈ 8.34 µM) | 2 µg/mL (≈ 2.08 µM) | 4 µg/mL (≈ 4.17 µM) | 2 µg/mL (≈ 2.08 µM) |  |  |  |  |  | CNC(=O)NC(=N)NCCCCCCCCN(CCCCCCCCNC(=N)NC(=O)NC)C(=O)N(CCCCCCCCNC(=N)NCC1CC1)CCCCCCCCNC(=N)NCC1CC1 |  |  | 
